Legend:
[1] = target: CAMKK2 (human) (UniProt Q96RR4); experiment: KINOMEscan competition binding; details: compound 10.0 µM
[2] = target: PLK3 (human) (UniProt Q9H4B4); experiment: KINOMEscan competition binding; details: compound 10.0 µM
[3] = target: STK33 (human) (UniProt Q9BYT3); experiment: KINOMEscan competition binding; details: compound 10.0 µM
[4] = target: PLK1 (human) (UniProt P53350); experiment: KINOMEscan competition binding; details: compound 10.0 µM
[5] = target: TNK1 (human) (UniProt Q13470); experiment: KINOMEscan competition binding; details: compound 10.0 µM
[6] = target: MAP2K3 (human) (UniProt P46734); experiment: KINOMEscan competition binding; details: compound 10.0 µM
[7] = target: TTK (human) (UniProt P33981); experiment: KINOMEscan competition binding; details: compound 10.0 µM
[8] = target: RIOK2 (human) (UniProt Q9BVS4); experiment: KINOMEscan competition binding; details: compound 10.0 µM
[9] = target: MAPK7 (human) (UniProt Q13164); experiment: KINOMEscan competition binding; details: compound 10.0 µM
[10] = target: DCLK2 (human) (UniProt Q8N568); experiment: KINOMEscan competition binding; details: compound 10.0 µM
[11] = target: MYLK (human) (UniProt Q15746); experiment: KINOMEscan competition binding; details: compound 10.0 µM
[12] = target: GAK (human) (UniProt O14976); experiment: KINOMEscan competition binding; details: compound 10.0 µM
[13] = target: PLK4 (human) (UniProt O00444); experiment: KINOMEscan competition binding; details: compound 10.0 µM
[14] = target: STK17A (human) (UniProt Q9UEE5); experiment: KINOMEscan competition binding; details: compound 10.0 µM
[15] = target: STK17B (human) (UniProt O94768); experiment: KINOMEscan competition binding; details: compound 10.0 µM
[16] = target: DCLK1 (human) (UniProt O15075); experiment: KINOMEscan competition binding; details: compound 10.0 µM
[17] = target: CHUK (human) (UniProt O15111); experiment: KINOMEscan competition binding; details: compound 10.0 µM
[18] = target: PIM2 (human) (UniProt Q9P1W9); experiment: KINOMEscan competition binding; details: compound 10.0 µM
[19] = target: MAPK15 (human) (UniProt Q8TD08); experiment: KINOMEscan competition binding; details: compound 10.0 µM
[20] = target: HIPK1 (human) (UniProt Q86Z02); experiment: KINOMEscan competition binding; details: compound 10.0 µM
[21] = target: PIM3 (human) (UniProt Q86V86); experiment: KINOMEscan competition binding; details: compound 10.0 µM
[22] = target: TAOK1 (human) (UniProt Q7L7X3); experiment: KINOMEscan competition binding; details: compound 10.0 µM
[23] = system: EGFR (human), P00533 [G719S]; experiment: KINOMEscan competition binding; details: compound 10.0 µM
[24] = target: PIM1 (human) (UniProt P11309); experiment: KINOMEscan competition binding; details: compound 10.0 µM
[25] = target: CDK16 (human) (UniProt Q00536); experiment: KINOMEscan competition binding; details: compound 10.0 µM
[26] = target: RPS6KA2 KD2 (human) (UniProt Q15349); experiment: KINOMEscan competition binding; details: compound 10.0 µM
[27] = target: RPS6KA6 KD2 (human) (UniProt Q9UK32); experiment: KINOMEscan competition binding; details: compound 10.0 µM
[28] = target: RPS6KA1 KD2 (human) (UniProt Q15418); experiment: KINOMEscan competition binding; details: compound 10.0 µM
[29] = target: PIM2 (human) (UniProt Q9P1W9); experiment: SelectScreen, TR FRET
[30] = target: PIM1 (human) (UniProt P11309); experiment: SelectScreen, TR FRET
[31] = target: RPS6KA4 KD2 (human) (UniProt O75676); experiment: KINOMEscan competition binding; details: compound 10.0 µM
[32] = target: GSK3A (human) (UniProt P49840); experiment: KINOMEscan competition binding; details: compound 10.0 µM
[33] = target: PIK3CG (human) (UniProt P48736); experiment: KINOMEscan competition binding; details: compound 10.0 µM

Sequence of PIM1 (human) (P11309 whole entry, looked up): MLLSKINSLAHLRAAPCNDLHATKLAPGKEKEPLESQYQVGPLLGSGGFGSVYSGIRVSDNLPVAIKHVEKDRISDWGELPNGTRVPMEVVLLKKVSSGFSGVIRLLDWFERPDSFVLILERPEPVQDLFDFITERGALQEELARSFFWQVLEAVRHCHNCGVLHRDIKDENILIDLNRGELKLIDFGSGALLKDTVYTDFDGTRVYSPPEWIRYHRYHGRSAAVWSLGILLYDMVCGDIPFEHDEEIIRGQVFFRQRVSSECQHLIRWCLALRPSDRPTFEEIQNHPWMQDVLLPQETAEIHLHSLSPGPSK
Sequence of MAP2K3 (human) (P46734 whole entry, looked up): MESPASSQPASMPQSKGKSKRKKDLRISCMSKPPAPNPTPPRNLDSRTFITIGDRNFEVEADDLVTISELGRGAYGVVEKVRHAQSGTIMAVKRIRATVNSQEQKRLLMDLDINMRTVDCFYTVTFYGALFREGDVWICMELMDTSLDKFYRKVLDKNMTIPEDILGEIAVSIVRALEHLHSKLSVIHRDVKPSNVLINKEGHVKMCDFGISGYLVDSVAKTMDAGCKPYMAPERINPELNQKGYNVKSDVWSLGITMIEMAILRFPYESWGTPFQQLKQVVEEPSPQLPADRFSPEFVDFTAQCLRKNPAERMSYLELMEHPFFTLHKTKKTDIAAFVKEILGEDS
Sequence of PIM2 (human) (Q9P1W9 whole entry, looked up): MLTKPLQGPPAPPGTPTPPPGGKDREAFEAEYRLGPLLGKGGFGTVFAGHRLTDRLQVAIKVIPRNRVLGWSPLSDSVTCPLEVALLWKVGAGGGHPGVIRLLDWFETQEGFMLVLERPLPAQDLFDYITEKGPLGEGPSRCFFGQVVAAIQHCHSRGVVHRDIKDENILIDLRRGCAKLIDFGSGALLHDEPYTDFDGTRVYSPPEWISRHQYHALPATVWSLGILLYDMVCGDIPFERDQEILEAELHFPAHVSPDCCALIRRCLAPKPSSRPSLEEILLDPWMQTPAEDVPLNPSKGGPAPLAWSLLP
Sequence of TTK (human) (P33981 whole entry, looked up): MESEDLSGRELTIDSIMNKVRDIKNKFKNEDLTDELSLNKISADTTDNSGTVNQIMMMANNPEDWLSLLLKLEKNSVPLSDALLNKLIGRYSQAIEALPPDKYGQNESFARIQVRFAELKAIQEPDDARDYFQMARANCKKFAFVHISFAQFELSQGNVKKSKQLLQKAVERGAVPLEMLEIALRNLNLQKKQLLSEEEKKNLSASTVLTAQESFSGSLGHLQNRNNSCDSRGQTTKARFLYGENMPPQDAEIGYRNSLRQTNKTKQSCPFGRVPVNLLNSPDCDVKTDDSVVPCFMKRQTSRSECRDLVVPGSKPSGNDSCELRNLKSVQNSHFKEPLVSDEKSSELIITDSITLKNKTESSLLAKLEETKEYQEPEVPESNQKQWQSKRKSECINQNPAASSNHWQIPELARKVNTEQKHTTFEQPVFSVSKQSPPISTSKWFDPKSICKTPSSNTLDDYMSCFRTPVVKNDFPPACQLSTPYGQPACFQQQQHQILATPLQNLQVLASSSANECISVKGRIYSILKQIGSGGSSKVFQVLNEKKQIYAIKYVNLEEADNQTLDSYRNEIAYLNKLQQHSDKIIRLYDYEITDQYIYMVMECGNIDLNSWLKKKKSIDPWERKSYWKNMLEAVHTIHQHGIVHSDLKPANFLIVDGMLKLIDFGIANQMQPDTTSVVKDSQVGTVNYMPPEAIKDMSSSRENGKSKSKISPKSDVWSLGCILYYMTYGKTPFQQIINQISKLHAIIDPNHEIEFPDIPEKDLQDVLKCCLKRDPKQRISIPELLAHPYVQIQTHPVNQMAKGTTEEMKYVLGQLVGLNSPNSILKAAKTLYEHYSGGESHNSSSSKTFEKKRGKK
Sequence of STK17A (human) (Q9UEE5 whole entry, looked up): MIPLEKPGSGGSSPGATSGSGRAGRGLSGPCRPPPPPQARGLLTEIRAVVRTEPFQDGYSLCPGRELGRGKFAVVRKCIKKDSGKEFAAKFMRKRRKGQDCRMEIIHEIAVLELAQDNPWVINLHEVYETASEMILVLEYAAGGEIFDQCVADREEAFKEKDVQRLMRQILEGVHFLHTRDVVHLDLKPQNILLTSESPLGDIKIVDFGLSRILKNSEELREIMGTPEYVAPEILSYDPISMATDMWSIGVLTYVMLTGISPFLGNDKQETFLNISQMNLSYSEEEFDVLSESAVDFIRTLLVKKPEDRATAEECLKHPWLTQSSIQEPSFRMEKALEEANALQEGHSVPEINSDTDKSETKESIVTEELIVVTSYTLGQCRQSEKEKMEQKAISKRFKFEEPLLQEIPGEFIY
Sequence of STK17B (human) (O94768 whole entry, looked up): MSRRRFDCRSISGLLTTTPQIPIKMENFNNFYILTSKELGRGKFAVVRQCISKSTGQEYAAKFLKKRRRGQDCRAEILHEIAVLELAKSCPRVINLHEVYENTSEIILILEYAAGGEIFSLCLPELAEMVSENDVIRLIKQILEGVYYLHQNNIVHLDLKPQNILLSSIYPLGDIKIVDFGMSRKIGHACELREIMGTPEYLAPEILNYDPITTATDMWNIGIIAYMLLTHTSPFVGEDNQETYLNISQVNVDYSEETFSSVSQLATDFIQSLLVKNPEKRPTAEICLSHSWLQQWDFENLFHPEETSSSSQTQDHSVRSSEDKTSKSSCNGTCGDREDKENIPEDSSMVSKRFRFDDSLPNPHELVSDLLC
Sequence of RPS6KA4 KD2 (human) (O75676 whole entry, looked up): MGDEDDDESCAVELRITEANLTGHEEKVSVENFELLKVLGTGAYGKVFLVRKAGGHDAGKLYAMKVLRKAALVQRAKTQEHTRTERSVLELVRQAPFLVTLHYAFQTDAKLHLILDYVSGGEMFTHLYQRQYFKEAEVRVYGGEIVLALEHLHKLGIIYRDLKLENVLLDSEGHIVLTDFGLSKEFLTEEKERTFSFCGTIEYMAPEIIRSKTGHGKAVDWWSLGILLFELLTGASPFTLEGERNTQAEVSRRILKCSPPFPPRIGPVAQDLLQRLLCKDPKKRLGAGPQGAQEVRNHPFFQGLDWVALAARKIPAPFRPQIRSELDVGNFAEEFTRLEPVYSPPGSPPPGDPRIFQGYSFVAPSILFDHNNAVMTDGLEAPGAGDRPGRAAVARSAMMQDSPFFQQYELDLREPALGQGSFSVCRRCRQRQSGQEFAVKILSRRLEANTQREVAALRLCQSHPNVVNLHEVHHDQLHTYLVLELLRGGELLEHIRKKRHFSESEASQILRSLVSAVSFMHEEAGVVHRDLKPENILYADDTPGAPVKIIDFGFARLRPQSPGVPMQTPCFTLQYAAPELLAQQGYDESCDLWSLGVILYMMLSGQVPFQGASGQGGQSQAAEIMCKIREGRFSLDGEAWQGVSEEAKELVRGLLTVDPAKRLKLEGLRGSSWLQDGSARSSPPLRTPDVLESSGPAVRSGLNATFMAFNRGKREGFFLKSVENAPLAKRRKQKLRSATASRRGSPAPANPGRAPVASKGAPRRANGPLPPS
Sequence of CDK16 (human) (Q00536 whole entry, looked up): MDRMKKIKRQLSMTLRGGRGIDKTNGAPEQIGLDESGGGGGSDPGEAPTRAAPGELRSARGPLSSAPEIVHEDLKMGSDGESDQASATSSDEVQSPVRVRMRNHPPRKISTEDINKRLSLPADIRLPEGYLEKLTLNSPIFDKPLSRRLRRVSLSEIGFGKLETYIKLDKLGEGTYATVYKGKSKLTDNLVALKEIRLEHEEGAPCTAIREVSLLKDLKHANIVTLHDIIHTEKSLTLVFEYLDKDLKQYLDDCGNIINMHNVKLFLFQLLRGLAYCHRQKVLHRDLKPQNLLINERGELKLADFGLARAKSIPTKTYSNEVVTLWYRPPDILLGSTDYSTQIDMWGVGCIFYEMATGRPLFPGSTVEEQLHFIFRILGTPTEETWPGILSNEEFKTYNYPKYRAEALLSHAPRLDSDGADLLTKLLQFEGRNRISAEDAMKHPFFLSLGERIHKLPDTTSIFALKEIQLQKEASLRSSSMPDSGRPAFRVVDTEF
Sequence of DCLK1 (human) (O15075 whole entry, looked up): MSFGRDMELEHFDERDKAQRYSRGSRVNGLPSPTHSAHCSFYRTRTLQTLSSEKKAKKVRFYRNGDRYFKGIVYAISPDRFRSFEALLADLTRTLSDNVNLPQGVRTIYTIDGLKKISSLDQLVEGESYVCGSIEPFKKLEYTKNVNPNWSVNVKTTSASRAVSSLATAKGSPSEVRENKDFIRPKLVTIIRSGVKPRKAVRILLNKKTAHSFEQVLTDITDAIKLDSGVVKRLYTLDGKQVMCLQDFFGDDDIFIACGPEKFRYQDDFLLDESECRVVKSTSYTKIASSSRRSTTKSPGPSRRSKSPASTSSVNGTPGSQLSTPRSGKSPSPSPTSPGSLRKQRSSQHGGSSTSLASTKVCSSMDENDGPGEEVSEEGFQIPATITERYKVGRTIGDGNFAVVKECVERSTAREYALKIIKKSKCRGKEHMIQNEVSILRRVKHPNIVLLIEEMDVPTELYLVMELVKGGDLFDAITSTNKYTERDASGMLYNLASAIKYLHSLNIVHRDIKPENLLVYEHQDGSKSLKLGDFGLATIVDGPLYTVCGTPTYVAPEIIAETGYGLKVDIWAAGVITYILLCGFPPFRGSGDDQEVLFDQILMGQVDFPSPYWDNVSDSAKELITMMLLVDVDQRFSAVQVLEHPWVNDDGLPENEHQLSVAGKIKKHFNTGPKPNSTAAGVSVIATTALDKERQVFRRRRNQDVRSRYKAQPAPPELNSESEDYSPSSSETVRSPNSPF

SMILES: COc1cc(C(=O)NC2CCC(O)CC2)ccc1Nc1ncc2c(n1)N(C1CCCC1)[C@@H]1CCC[C@@H]1C(=O)N2C (stereo partly specified)
- kinase still bound, per cent of control [1]: 27%
- kinase still bound, per cent of control [2]: 0.9%
- kinase still bound, per cent of control [3]: 34%
- kinase still bound, per cent of control [4]: 0%
- kinase still bound, per cent of control [5]: 14%
- kinase still bound, per cent of control [6]: 0.3%
- kinase still bound, per cent of control [7]: 32%
- kinase still bound, per cent of control [8]: 0.5%
- kinase still bound, per cent of control [9]: 14%
- kinase still bound, per cent of control [10]: 17%
- kinase still bound, per cent of control [11]: 1.7%
- kinase still bound, per cent of control [12]: 28%
- kinase still bound, per cent of control [13]: 4.3%
- kinase still bound, per cent of control [14]: 0%
- kinase still bound, per cent of control [15]: 0%
- kinase still bound, per cent of control [16]: 8.2%

SMILES: NS(=O)(=O)c1ccc(-c2ccc(/C=C3\NC(=S)NC3=O)o2)cc1
- kinase still bound, per cent of control [17]: 32%

SMILES: CS(=O)(=O)Nc1ccc(-c2cccc(/C=C3\SC(=N)NC3=O)n2)cc1
- kinase still bound, per cent of control [18]: 9.2%
- kinase still bound, per cent of control [19]: 22%
- kinase still bound, per cent of control [20]: 0.4%
- kinase still bound, per cent of control [6]: 21%
- kinase still bound, per cent of control [21]: 13%
- kinase still bound, per cent of control [22]: 26%
- kinase still bound, per cent of control [23]: 16%
- kinase still bound, per cent of control [24]: 23%
- kinase still bound, per cent of control [25]: 10%

SMILES: CC(C)Oc1cc(N2CCC(N(C)C)CC2)ccc1Nc1ncc2c(n1)N1CCC[C@H]1CC(=O)N2C
- kinase still bound, per cent of control [26]: 9.4%
- kinase still bound, per cent of control [7]: 12%
- kinase still bound, per cent of control [11]: 26%
- kinase still bound, per cent of control [27]: 24%
- kinase still bound, per cent of control [28]: 34%
- kinase still bound, per cent of control [16]: 7.4%

SMILES: Cc1cn(-c2cc(NC(=O)c3cccc4cc(-c5ccc(/C=C6\SC(=O)NC6=O)o5)ccc34)cc(C(F)(F)F)c2)cn1
- IC50 [29]: 1.43 µM
- IC50 [30]: 5.63 µM

SMILES: NC1=N/C(=C\c2ccc(-c3ccc(S(N)(=O)=O)cc3)o2)C(=O)N1
- kinase still bound, per cent of control [6]: 13%
- kinase still bound, per cent of control [21]: 6%
- kinase still bound, per cent of control [31]: 14%
- kinase still bound, per cent of control [24]: 9.5%

SMILES: CN1C(=N)NC(=O)/C1=C/c1ccc(-c2ccc(S(N)(=O)=O)cc2)o1
- kinase still bound, per cent of control [6]: 11%
- kinase still bound, per cent of control [21]: 7.4%
- kinase still bound, per cent of control [24]: 21%

SMILES: CN1C(=N)NC(=O)/C1=C/c1ccc(-c2cncc3ccccc23)o1
- IC50 [29]: 3.06 µM
- IC50 [30]: 3.56 µM

SMILES: N=C1NC(=O)/C(=C/c2ccc(-c3ccc4c(C(=O)Nc5cccc(C(F)(F)F)c5)cccc4c3)o2)S1
- IC50 [29]: 3.42 µM
- IC50 [30]: > 10 µM

SMILES: CC(C)Oc1cc(N2CCC(O)CC2)ccc1Nc1ncc2c(n1)N1CCC[C@H]1CC(=O)N2C
- kinase still bound, per cent of control [2]: 16%
- kinase still bound, per cent of control [4]: 21%
- kinase still bound, per cent of control [7]: 5%
- kinase still bound, per cent of control [31]: 32%

SMILES: N=C1NC(=O)/C(=C/c2ccc(-c3ccc(C(=O)Nc4ccc(N5CCNCC5)cc4)cc3)o2)S1
- IC50 [29]: 0.214 µM
- IC50 [30]: 0.151 µM

SMILES: CN1C(=N)NC(=O)/C1=C/c1ccc(-c2cccc3ccccc23)o1
- kinase still bound, per cent of control [18]: 2.6%
- kinase still bound, per cent of control [21]: 9.6%
- kinase still bound, per cent of control [14]: 33%
- kinase still bound, per cent of control [24]: 27%
- kinase still bound, per cent of control [32]: 14%
- kinase still bound, per cent of control [15]: 32%
- IC50 [29]: 9.21 µM
- IC50 [30]: > 10 µM

SMILES: NS(=O)(=O)c1ccc(-c2ccc(/C=C3\SC(=S)NC3=O)o2)cc1
- kinase still bound, per cent of control [21]: 2.2%
- kinase still bound, per cent of control [33]: 22%
- kinase still bound, per cent of control [13]: 14%
- kinase still bound, per cent of control [24]: 1.8%
- kinase still bound, per cent of control [25]: 10%
- IC50 [29]: 0.177 µM
- IC50 [30]: 0.305 µM
